Measurements taken from patent publication US20230192787A1, “DIAGNOSIS METHODS, DIAGNOSTIC AGENTS, AND THERAPEUTIC AGENTS AGAINST ALZHEIMER'S DISEASE AND FRONTOTEMPORAL LOBAR DEGENERATION, AND SCREENING METHODS FOR THESE AGENTS” (National University Corporation Tokyo Medical and Dental …, priority 2013, published 2023).
“Also recorded” adds a separate entry of the source.

Tests used:
5×FAD mice = assay: In vivo two-photon imaging of dendritic spines after administering kinase inhibitors/activator; design: species or system mouse; details: 5×FAD mice (12 weeks old); for spine densities by morphological type (thin, mushroom, stubby) / spine dynamics: spine formation and stability: 36 hours and 60 hours after administration; for dendritic spine density (total spine density): layer 1 of retrosplenial cortex, 36 hours and 60 hours after administration by osmotic pump
Procedure: (§1) Two-photon imaging of dendritic spine was performed using a laser-scanning microscope system FV1000MPE2 (manufactured by Olympus Corporation) equipped with an upright microscope (BX61WI, manufactured by Olympus Corporation, a water-immersion objective lens (XLPlanN25xW; numerical aperture, 1.05), and a pulsed laser (MaiTai HP DeepSee, manufactured by Spectra Physics). In the imaging, EGFP was excited by light at a wavelength of 890 nm, and scanned in a range of 500 to 550 nm. Moreover, the scanned region for three-dimensional imaging was 100×100 μm (1 μm Z-axis steps, 1024×1024 pixels).
(§2) Additionally, two weeks before the imaging, adeno-associated virus 1 (AAV1)-EGFP with the synapsin 1 promoter (titer: 1×10^10 vector genomes/mL, 1 μL) was injected into the retrosplenial cortex (−2.0 mm anteroposterior and 0.6 mm mediolateral from the bregma, depth 1 mm) of mice under anesthesia with 2.5% isoflurane. Then, two weeks thereafter, the dendritic spines of the first layer (layer 1) of the cerebral cortex were observed through a thinned skull window according to the method described in “Yang, G. et al., Nat. Protoc., 2010, Vol. 5, pp. 201 to 208.”
Moreover, when the influence of kinase inhibition on dendritic spines was imaged, Alzet micro-osmotic pumps (model: 1003D, manufactured by Durect Corporation) filled with PBS/1% DMSO containing 1 μM Go6976 (manufactured by Calbiochem), 0.4 mM KN-93 (manufactured by Cayman Chemical), or 1 μM MLR1023 (manufactured by Glixx Laboratories) were implanted into mice under anesthesia with O2/isoflurane. […] Note that, regarding the PKC inhibitor Go6976, see Yan, Z. et al., Proc. Natl. Acad. Sci. U.S.A., 1999, Vol. 96, pp. 11607 to 11612. Regarding the CaMK inhibitor KN-93, see Galan, A. et al., Pain, 2004, Vol. 112, pp. 315 to 323. Regarding the Lyn activator MLR1023, see Saporito, M. S. et al., J. Pharmacol. Exp. Ther., 2012, Vol. 342, pp. 15 to 22.
In addition, the spine density, spine length, spine maximum diameter, and spine neck minimum diameter were measured from the obtained images using image analysis software IMARIS 7.2.2 (manufactured by Bitplane).
More concretely, the effect of the kinases on the synaptic pathology in the 5×FAD mice was analyzed by administering inhibitors and so forth against these kinases into the subarachnoid spaces of the mice. FIGS. 4 to 9 show the obtained result.

[1] = test system: phosphorylated b-RAF protein; assay: Western blot of cerebral cortexes of treated PGRN-KI mice, phosphorylated b-RAF; format: in vivo, mouse
Procedure: (§3) FIG. 27 is a figure for illustrating the result of western blot analysis on the cerebral cortexes of wild-type mice (WT) and the PGRN-KI mice to which vemurafenib was administered. […] “Anti-p-Braf” and “Anti-p-PKC” respectively show the analysis result of phosphorylated b-RAF protein and the analysis result of phosphorylated PKC protein. […] The significant differences were evaluated based on the P-value calculated by Student's independent t-test.
(§4) FIG. 28 is a figure for illustrating the result of western blot analysis on the cerebral cortexes of the PGRN-KI mice to which thalidomide was administered. […] “Anti-p-Braf”, “Anti-Braf”, and “Anti-p-PKC” respectively show the analysis result of phosphorylated b-raf protein, the analysis result of b-raf protein, and the analysis result of phosphorylated PKC protein. […] Further, in the figure, one asterisk indicates p<0.05 in Student's independent t-test, and two asterisks indicate p<0.01 in Student's independent t-test.
(§5) Moreover, the cerebral cortexes of the PGRN-KI mice treated with the agent were analyzed by western blot.

[2] = test system: phosphorylated PKC protein; assay: Western blot of cerebral cortexes of treated PGRN-KI mice, phosphorylated PKC; format: in vivo, mouse
Procedure: as §3, §4, §5

PGRN-KI mice [3] = assay: Immunohistological analysis of protein aggregation in brains of PGRN-KI mice; format: in vivo, mouse
Text: To be more specific, as the first hypothesis, the aforementioned therapeutic effect by suppressing b-raf phosphorylation was presumably based on the elimination of protein aggregation in the nerve by vemurafenib or thalidomide. Accordingly, analyzed was the recovery effect of vemurafenib or thalidomide on the protein aggregation in the cerebral cortexes of the PGRN-KI mice.

PGRN-KI mice [4] = assay: Morris water maze test in FTLD model mice; format: in vivo, mouse; details: provided every day over 6 weeks from 6 weeks old
Procedure: In this test, the mice received a 60-second trial four times a day for 5 days. The time until each mouse reached the platform was measured.
Furthermore, the PGRN-KI mice were also subjected to six behavioral tests as in the case of Alzheimer's disease model mice described above. As a result, abnormalities regarding anxiety memory and anxiety-related memory were not observed in the open-field test, the light-dark box test, and the elevated plus maze test. […] Moreover, in the Morris water maze test, a statistically significant decrease was observed from the age of 3 months in the time during which the mice stayed in the target region or the number of times the mice passed through the target. […] Note that, in the Morris water maze test using the PGRN-KI mice, the mice received the 60-second trial four times a day for 5 days to learn the position of the platform (target region). […]
To be more specific, in accordance with the protocol shown in FIG. 21, a b-raf specific inhibitor vemurafenib or PBS was provided to the 6-week-old PGRN-KI mice every day over 6 weeks. Then, the behaviors of these mice were evaluated in the Morris water maze test and the fear-conditioning test. […]
Meanwhile, the therapeutic effect of thalidomide was also tested. […] The behaviors of these mice were evaluated by the above two tests. […]

PGRN-KI mice [5] = assay: Fear-conditioning test in FTLD model mice; format: in vivo, mouse; details: provided every day over 6 weeks from 6 weeks old
Procedure: In this test, first, a mouse received a sound stimulus (65-dB white noise, 30 seconds) together with an electrical stimulus (0.4 mA, 2 seconds) on the foot. Then, after 24 hours, the mouse was measured for the frequency of the freezing reaction when the mouse received a sound stimulus but no electrical stimulus in the same chamber.
To be more specific, in accordance with the protocol shown in FIG. 21, a b-raf specific inhibitor vemurafenib or PBS was provided to the 6-week-old PGRN-KI mice every day over 6 weeks. Then, the behaviors of these mice were evaluated in the Morris water maze test and the fear-conditioning test. FIGS. 22 and 23 show the obtained result.
Meanwhile, the therapeutic effect of thalidomide was also tested. Note that thalidomide is known to suppress the TNF signal transduction pathway. Concretely, in accordance with the protocol shown in FIG. 24, thalidomide was administered to the PGRN-KI mice by peritoneal cavity injection every day for the same period as that in the protocol using the b-raf inhibitor. The behaviors of these mice were evaluated by the above two tests. FIGS. 25 and 26 show the obtained result.

PGRN-KI mice [6] = assay: In vivo two-photon imaging of synaptic spines in retrosplenial cortex of PGRN-KI mice (recovery experiment); design: species or system mouse
Procedure: as §1, §2
A pharmacological recovery experiment was conducted on the PGRN-KI mice as follows. […]
In addition, analyzed was whether or not vemurafenib and/or tau knockdown enabled recovery of spine related phenotype. […]

## Cn1c2ccccc2c2c3c(c4c5ccccc5n(CCC#N)c4c21)CNC3=O [Go6976]
5×FAD mice
  spine densities by morphological type (thin, mushroom, stubby): the decreases were recovered; also recorded: increased
  spine dynamics: spine formation and stability: enhanced the spine formation and stability
  dendritic spine density (total spine density): recovered the decrease of spines; also recorded: increased the total spine density

## COc1ccc(S(=O)(=O)N(CCO)c2ccccc2CN(C)C/C=C/c2ccc(Cl)cc2)cc1 [KN-93]
5×FAD mice
  spine densities by morphological type (thin, mushroom, stubby): the decreases were recovered
  spine dynamics: spine formation and stability: had a therapeutic effect on the spine formation and stability
  dendritic spine density (total spine density): recovered the decrease of spines

## Cc1cccc(Oc2cnc(O)nc2)c1 [MLR1023]
5×FAD mice
  spine densities by morphological type (thin, mushroom, stubby): the decreases were recovered
  spine dynamics: spine formation and stability: had a therapeutic effect on the spine formation and stability
  dendritic spine density (total spine density): recovered the decrease of spines

## O=C1CCC(N2C(=O)c3ccccc3C2=O)C(=O)N1 (centres unmarked) [thalidomide]
[1]
  b-raf phosphorylation: the b-raf phosphorylation was suppressing
[2]
  PKC phosphorylation: the PKC phosphorylation was not suppressed
PGRN-KI mice [3]
  FUS and p62 inclusion (IB): no significant effect
  transition of TDP43 into the cytoplasm: no large change was observed
PGRN-KI mice [4]
  scores in the Morris water maze test: beneficial effects were finally verified
PGRN-KI mice [5]
  scores in the fear-conditioning test: beneficial effects were finally verified

## CCCS(=O)(=O)Nc1ccc(F)c(C(=O)c2c[nH]c3ncc(-c4ccc(Cl)cc4)cc23)c1F [vemurafenib, N-{3-[5-(4-chlorophenyl)-1H-pyrrolo[2,3-b]pyridine-3-carbonyl]-2,4-difluorophenyl}propane-1-sulfonamide]
[1]
  b-raf phosphorylation: suppressed the b-raf phosphorylation
[2]
  PKC phosphorylation: also suppressed the PKC phosphorylation
PGRN-KI mice [3]
  FUS and p62 inclusion (IB): no significant effect
  transition of TDP43 into the cytoplasm: no large change was observed
PGRN-KI mice [6]; PGRN-KI mice (12 weeks old), vemurafenib 1.7 μM by osmotic pump for 3 days, shRNA imaged on Day 5
  number of spines: recovered the number of spines; also recorded: had a recovery effect on the number of spines
PGRN-KI mice [6]; PGRN-KI mice, trend, not a statistically significant difference
  spine volume: decreased the spine volume
PGRN-KI mice [4]
  scores in the Morris water maze test: remarkably recovered the scores in the two tests
PGRN-KI mice [5]
  scores in the fear-conditioning test: remarkably recovered the scores in the two tests
